The subject of test [1] is TNF-α production in LPS/IFN-γ-activated RAW 264.7 gamma NO(−) macrophages. The experiment in a line: TNF-α quantification (ELISA) in supernatants of activated macrophages. As to conditions: for TNF-α: LPS/IFN-γ control = 100; for Effect on TNF-α production, in words: over the tested concentrations. In kind it is cell-based, mouse. As to the method: Cell culture. The mouse monocyte/macrophage cell line RAW 264.7 gamma NO(−) [American Type Culture Collection (ATCC)] was cultured in RPMI-1640 supplemented with 10% (v/v) heat-inactivated FBS, streptomycin ([…]) and penicillin (100 units/ml). All cultures were incubated at 37° C. in a humidified atmosphere with 5% CO2. Cell number was assessed by trypan blue dye exclusion on a Neubauer hemacytometer. Cells were grown to 90% confluence in sterile cell culture flasks and gently detached using a scraper (Fisher Scientific). For phenolic compound treatment tests, cells were cultured in triplicate in Costar flat-bottom cell culture plates (Corning Inc.). Cells were plated at a density of 6×10^5 cells/well in 24-well cell culture plates and grown for 1 h to allow them to attach to the plate. Compounds to be tested were initially dissolved in 10 μl of DMSO, and then RPMI was added to make solutions in a series of concentrations with a dilution factor of 2. […] For berry juices, the final concentrations were 16, 31, 63, 125, 250 and 500 μM GAE, respectively. Cells were supplemented with the test compounds for 1 h before stimulation with 10 ng/ml lipopolysaccharide (LPS) and 10-50 units/ml interferon gamma (IFN-γ). The activated cells were incubated for 24 h and then supernatants were collected to determine nitrite concentration and/or stored at −80° C. for further use. Control cells were grown under identical conditions but were not exposed to the test compounds or LPS/IFN-γ.
Tumour necrosis factor alpha (TNF-α) Quantification. TNF-α in cell supernatants was determined by using an OptELISA set mouse TNF-α (mono/poly) from BD PharMingen. The enzyme-linked immunosorbent assay (ELISA) was carried out as specified by the manufacturer.

For test [2], the system named is LPS/IFN-γ-activated RAW 264.7 gamma NO(−) macrophages. Description: Inhibition of nitric oxide production (nitrite, Griess reaction) in activated macrophages. In kind it is cell-based, mouse. As to conditions: for Nitrite: 24 h after LPS/IFN-γ; for inhibition at 63 µM: RAW264.7, 63 μM (μM GAE for juices); for inhibition at 125 µM: RAW264.7, 125 μM (μM GAE for juices); for inhibition at 250 µM: RAW264.7, 250 μM (μM GAE for juices); for inhibition at 500 µM: RAW264.7, 500 μM (μM GAE for juices); for Effect on NO production, in words: over the tested concentrations. As to the method:
Cell culture. The mouse monocyte/macrophage cell line RAW 264.7 gamma NO(−) [American Type Culture Collection (ATCC)] was cultured in RPMI-1640 supplemented with 10% (v/v) heat-inactivated FBS, streptomycin ([…]) and penicillin (100 units/ml). All cultures were incubated at 37° C. in a humidified atmosphere with 5% CO2. Cell number was assessed by trypan blue dye exclusion on a Neubauer hemacytometer. Cells were grown to 90% confluence in sterile cell culture flasks and gently detached using a scraper (Fisher Scientific). For phenolic compound treatment tests, cells were cultured in triplicate in Costar flat-bottom cell culture plates (Corning Inc.). Cells were plated at a density of 6×10^5 cells/well in 24-well cell culture plates and grown for 1 h to allow them to attach to the plate. Compounds to be tested were initially dissolved in 10 μl of DMSO, and then RPMI was added to make solutions in a series of concentrations with a dilution factor of 2. The final concentrations of test compound that cells received were 16, 31, 63, 125, 250, and 500 μM, respectively. For berry juices, the final concentrations were 16, 31, 63, 125, 250 and 500 μM GAE, respectively. Cells were supplemented with the test compounds for 1 h before stimulation with 10 ng/ml lipopolysaccharide (LPS) and 10-50 units/ml interferon gamma (IFN-γ). The activated cells were incubated for 24 h and then supernatants were collected to determine nitrite concentration and/or stored at −80° C. for further use. Control cells were grown under identical conditions but were not exposed to the test compounds or LPS/IFN-γ.
Nitric Oxide (NO) Determination. Nitrite concentration was used as an indication of NO production. The procedure for NO determination was based on the Griess reaction. The assay was assessed as in the methods of Wang and Mazza (2002a, 2002b) for cell supernatants supplemented with phenolic compounds or berry juices. In brief, 100 μL of cell culture supernatant or sodium nitrite standard was mixed with an equal volume of Griess reagent [a mixture of 0.1% (w/v) N-(1-naphthyl)-ethylenediamine dihydrochloride and 1% (w/v) sulfanilamide in 5% (v/v) phosphoric acid, the two parts being mixed together within 1 h of use] using a 96-well plate. A set of parallel analyses was also conducted by applying only 100 μL of 2.5% (v/v) phosphoric acid instead of Griess reagent to each of 100 μL of cell supernatants or the mixture of standard sodium nitrite and cyanidin chloride. After 20 min at room temperature, the absorbance at 540 nm was measured using the microtitration reader. The net absorbance of the product of the Griess reaction was obtained by subtracting that of anthocyanins from the total. The absorbance was referred to a nitrite standard curve to determine the nitrite concentration in the supernatants.
Inhibition of Nitric Oxide Production. RAW 264.7 gamma NO(−) cell line was derived from the RAW 264.7 mouse monocyte/macrophage cell line. […] When LPS/IFN-γ was administered to RAW 264.7 gamma (NO−) macrophages, NO production, measured as nitrite, increased dramatically from the basal level of 0 to ≧30 μM after 24 h. To determine the effects of cranberry and blueberry juice and other phenolic compounds on NO production, different concentrations of these compounds (500, 250, 125, 63, and 16 μM) were incubated with the LPS/IFN-γ-activated macrophages (Table 7). Cell viability was assayed to exclude the possibility that the inhibitory effects of phenolic compounds were due to their cytotoxicity. The MTT assay was used for the colorless phenolic compound-treated macrophages, whereas the resazurin assay was used for cranberry and blueberry juice-treated macrophages. […]

Where [3] appears, read: Mus musculus, read-out: Inhibitory effect (decrease of NO production).

“Also recorded” adds a separate entry of the source.

The values that follow come from patent US9358262B2, “Use of antioxidant-enriched fermented blueberry extracts in the treatment of diabetes” (priority 2003, dated 2016).

Take `O=C(/C=C/c1ccc(O)c(O)c1)O[C@@H]1C[C@](O)(C(=O)O)C[C@@H](O)[C@H]1O` [Chlorogenic acid]: the TNF-α in test [1] (50 μM) is given as 105.7 (8.4) %; in test [1] (200 μM) it was 99.2 (7.6) %; in test [1] (400 μM), 126 (31.1) %; in test [1] (500 μM) it was 115.6 (15.4) %. Besides, the “Effect on TNF-α production, in words” value in test [1] is “may induce TNF-α production”. In addition, the Nitrite in test [2] (16 μM (μM GAE for juices)) is given as 37.1 (0.4) μM; in test [2] (31 μM (μM GAE for juices)), 39 (1) μM; in test [2] (63 μM (μM GAE for juices)), 40.4 (1.64) μM; in test [2] (125 μM (μM GAE for juices)), 41.7 (1.7) μM; in test [2] (250 μM (μM GAE for juices)), 47.6 (1.4) μM; in test [2] (500 μM (μM GAE for juices)) it was 46.6 (1.5) μM. In test [2] (Mus musculus, RAW264.7, 16 μM (μM GAE for juices), read-out: Inhibitory effect (decrease of NO production)), the inhibition at 16 µM was -9.6%. In addition, the inhibition at 31 µM in test [2] (Mus musculus, RAW264.7, 31 μM (μM GAE for juices), read-out: Inhibitory effect (decrease of NO production)) was -15.2%. Besides, the inhibition at 63 µM in test [2] (setting [3]) is -19.5%. The inhibition at 125 µM in test [2] (setting [3]) is -23.4%. Moreover, the inhibition at 250 µM in test [2] (setting [3]) was -40.8%. Also, the inhibition at 500 µM in test [2] (setting [3]) was -37.9%. For the same molecule, the “Effect on NO production, in words” value in test [2] is reported as “showed no inhibitory effects; also recorded: induced production of NO”.
For the molecule `O=C(O)c1cc(O)c(O)c(O)c1` [Gallic acid], the TNF-α in test [1] (50 μM) was 103.4 (3.2) %; in test [1] (100 μM) it was 126.2 (11) %; in test [1] (200 μM), 160.3 (8.4) %; in test [1] (300 μM), 257.4 (36.7) %; in test [1] (400 μM), 213.9 (54.8) %; in test [1] (500 μM), 183.5 (19.8) %. Also, in test [1], the “Effect on TNF-α production, in words” value was “may induce TNF-α production”. The Nitrite is recorded as 36.2 (3.7) μM in test [2] (16 μM (μM GAE for juices)); 35.4 (2.9) μM in test [2] (31 μM (μM GAE for juices)); 29.3 (0.3) μM in test [2] (63 μM (μM GAE for juices)); 31.1 (5.9) μM in test [2] (125 μM (μM GAE for juices)); 25.2 (1.5) μM in test [2] (250 μM (μM GAE for juices)); 22.6 (0.6) μM in test [2] (500 μM (μM GAE for juices)). For the same molecule, the “Inhibitory effect (decrease of NO production)” value in test [2] (500 μM (μM GAE for juices), 500 µM) is on record as 30.9 (1.9) %. Besides, in test [2] (setting [3]), the inhibition at 63 µM worked out at 10.5%. In addition, the inhibition at 125 µM in test [2] (setting [3]) worked out at 19%. Further, the inhibition at 250 µM in test [2] (setting [3]) amounted to 23%. In test [2] (setting [3]), the inhibition at 500 µM is 30%. Further, the “Effect on NO production, in words” value in test [2] is “dose-dependent”.
